Source: paper PMC4121618 (Molecular Pain, 2014)
Like-named read-outs stand apart in the source and are kept apart here.

Assays:
[1] = tested on: MOP receptor; design: method as in PMID 15857143; conditions: ref [13]; cited from earlier work
[2] = tested on: animals; conditions: ref [14]; cited from earlier work
[3] = tested on: mice; assay: PPQ abdominal stretching test; assay type: in vivo; conditions: for ED50: Mus musculus, sc, PPQ abdominal stretching test, read-out: ED50 (95% CL) PPQ; for Times more active than oxycodone (antinociceptive potency): maximum over hot-plate, tail-flick and PPQ assays
[4] = target: T1, KOP receptor (Rattus norvegicus, UniProt P34975); assay: Radioligand binding assay, KOP receptor, rat brain membranes ([3H]U69,593); conditions: for Selectivity ratio KOP/MOP: Ki ratio, rat brain membranes
T1 construct: from tissue; host or cells: Sprague-Dawley rat brain membranes
T1 sequence (P34975 whole entry): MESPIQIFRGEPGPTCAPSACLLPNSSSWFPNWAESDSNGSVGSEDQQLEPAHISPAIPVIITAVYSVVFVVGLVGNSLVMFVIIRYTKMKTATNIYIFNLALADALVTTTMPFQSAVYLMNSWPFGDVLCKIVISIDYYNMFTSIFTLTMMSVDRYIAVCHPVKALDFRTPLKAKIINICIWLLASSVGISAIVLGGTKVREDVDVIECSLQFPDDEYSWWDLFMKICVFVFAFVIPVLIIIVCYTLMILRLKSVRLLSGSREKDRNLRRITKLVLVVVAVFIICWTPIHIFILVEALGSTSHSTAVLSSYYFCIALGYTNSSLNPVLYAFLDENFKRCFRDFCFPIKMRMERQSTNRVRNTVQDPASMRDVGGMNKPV

[5] = target: T2, MOP receptor (Rattus norvegicus, UniProt P33535); assay: Radioligand binding assay, MOP receptor, rat brain membranes ([3H]DAMGO)
T2 construct: from tissue; host or cells: Sprague-Dawley rat brain membranes
T2 sequence (P33535 whole entry): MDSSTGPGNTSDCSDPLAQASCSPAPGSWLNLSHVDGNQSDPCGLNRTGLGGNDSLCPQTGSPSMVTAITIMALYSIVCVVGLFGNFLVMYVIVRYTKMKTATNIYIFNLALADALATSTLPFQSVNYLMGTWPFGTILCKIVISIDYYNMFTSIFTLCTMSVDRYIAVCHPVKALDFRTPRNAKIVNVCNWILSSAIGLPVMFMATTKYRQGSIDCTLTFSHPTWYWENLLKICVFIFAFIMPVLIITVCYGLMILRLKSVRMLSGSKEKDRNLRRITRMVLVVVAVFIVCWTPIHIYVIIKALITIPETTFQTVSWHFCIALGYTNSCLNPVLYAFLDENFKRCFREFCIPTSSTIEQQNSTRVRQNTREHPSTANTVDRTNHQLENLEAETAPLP

[6] = target: T3, human MOP receptors (Homo sapiens, UniProt P35372); assay: [35S]GTPγS functional assay in CHOhMOP cell membranes; assay type: biochemical; design: expressed in transfected cells; host or cells: CHO cells; conditions: for Emax: read-out: [35S]GTPγS functional assay Emax
T3 sequence (P35372 whole entry): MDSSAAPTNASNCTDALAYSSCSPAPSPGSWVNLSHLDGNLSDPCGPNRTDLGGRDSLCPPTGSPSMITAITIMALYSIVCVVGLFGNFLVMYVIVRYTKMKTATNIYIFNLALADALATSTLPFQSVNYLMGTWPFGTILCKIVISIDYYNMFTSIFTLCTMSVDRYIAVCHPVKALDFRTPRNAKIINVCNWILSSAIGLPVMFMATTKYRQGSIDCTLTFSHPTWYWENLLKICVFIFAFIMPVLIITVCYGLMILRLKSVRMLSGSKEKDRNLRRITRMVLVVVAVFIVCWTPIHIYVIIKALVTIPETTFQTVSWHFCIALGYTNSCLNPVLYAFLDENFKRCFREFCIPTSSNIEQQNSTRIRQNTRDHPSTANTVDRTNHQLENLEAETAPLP

[7] = tested on: mice; assay: Hot-plate test; assay type: in vivo; conditions: s.c.; for ED50: Mus musculus, sc, 0.5 h, hot-plate test, 30 min after dosing, read-out: ED50 (95% CL) HP
[8] = target: T4, DOP receptor (Rattus norvegicus, UniProt P33533); assay: Radioligand binding assay, DOP receptor, rat brain membranes ([3H][Ile5,6]deltorphin II); conditions: for Selectivity ratio DOP/MOP: Ki ratio, rat brain membranes
T4 construct: from tissue; host or cells: Sprague-Dawley rat brain membranes
T4 sequence (P33533 whole entry): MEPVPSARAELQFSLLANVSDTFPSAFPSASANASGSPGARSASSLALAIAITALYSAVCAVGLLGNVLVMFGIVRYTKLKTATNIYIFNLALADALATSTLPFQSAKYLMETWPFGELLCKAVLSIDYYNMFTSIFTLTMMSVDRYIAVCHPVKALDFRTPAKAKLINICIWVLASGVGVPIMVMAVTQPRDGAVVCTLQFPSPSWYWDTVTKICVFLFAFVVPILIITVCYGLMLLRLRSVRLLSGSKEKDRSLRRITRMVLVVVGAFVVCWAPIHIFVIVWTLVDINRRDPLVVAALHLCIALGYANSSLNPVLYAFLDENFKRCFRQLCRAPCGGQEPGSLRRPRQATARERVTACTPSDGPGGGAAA

[9] = tested on: mice; assay: Tail-flick test; assay type: in vivo; conditions: s.c.; for ED50: Mus musculus, sc, 20 min, tail-flick test, 20 min after dosing, read-out: ED50 (95% CL) TF
[10] = target: T3, human MOP receptors; assay: Calcium mobilization assay in CHOhMOP cells expressing Gαqi5; assay type: cell-based; design: expressed in transfected cells; host or cells: CHO cells stably co-expressing Gαqi5; conditions: for Emax: read-out: Calcium mobilization assay Emax
[11] = tested on: human MOP receptor in CHO cells; design: method as in PMID 14600248; conditions: CHOhMOP, Thompson et al.; ref [35]; read-out: [35S]GTPγS binding EC50; cited from earlier work
[12] = tested on: human MOP receptor; design: method as in PMID 22002663; conditions: HEK293 cells co-expressing human MOP receptor and Gαqi3, ref [37], cited from earlier work
[13] = tested on: mice; design: method as in PMID 16033285; conditions: s.c., tail-flick test, ref [30]; cited from earlier work
[14] = tested on: mice; design: method as in PMID 16033285; conditions: s.c., PPQ abdominal stretching test, ref [30]; cited from earlier work
[15] = tested on: mice; design: method as in PMID 16033285; conditions: s.c., hot-plate test, ref [30]; cited from earlier work
[16] = tested on: C6rMOP cells (rat MOP receptor); design: method as in PMID 16291875; conditions: ref [36], read-out: Potency EC50; cited from earlier work
[17] = target: T4, DOP receptor; conditions: cited from earlier work; for Ki: read-out: Ki DOP
[18] = target: T1, KOP receptor; conditions: cited from earlier work; for Ki: read-out: Ki KOP
[19] = target: T2, MOP receptor; conditions: read-out: Ki MOP; cited from earlier work
[20] = target: T5, rat DOP receptors (C6rDOP) (Rattus norvegicus, UniProt P33533); assay: Binding assay in C6rDOP cell membranes ([3H]diprenorphine)
T5 construct: expressed in transfected cells
T5 sequence (P33533 whole entry): as above

[21] = target: T6, human KOP receptors (CHOhKOP) (Homo sapiens, UniProt P41145); assay: Binding assay in CHOhKOP cell membranes ([3H]diprenorphine)
T6 construct: expressed in transfected cells
T6 sequence (P41145 whole entry): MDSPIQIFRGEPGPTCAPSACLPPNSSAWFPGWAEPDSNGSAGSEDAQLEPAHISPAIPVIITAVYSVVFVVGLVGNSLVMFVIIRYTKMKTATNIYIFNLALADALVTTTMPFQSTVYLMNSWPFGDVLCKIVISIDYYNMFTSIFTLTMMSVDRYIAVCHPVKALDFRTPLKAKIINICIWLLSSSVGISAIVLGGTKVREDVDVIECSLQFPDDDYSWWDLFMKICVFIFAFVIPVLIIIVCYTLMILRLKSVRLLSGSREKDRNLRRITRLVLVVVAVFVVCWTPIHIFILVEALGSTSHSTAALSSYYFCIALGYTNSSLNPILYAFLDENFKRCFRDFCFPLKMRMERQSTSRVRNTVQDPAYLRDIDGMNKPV

[22] = target: T7, recombinant rat MOP receptor expressed in C6 glioma cells (Rattus norvegicus, UniProt P33535); assay: Binding assay in C6rMOP cell membranes ([3H]diprenorphine)
T7 construct: expressed in transfected cells
T7 sequence (P33535 whole entry): as the sequence (P33535 whole entry) above

[23] = absolute stimulation, set as 100%

| SMILES | ED50 [3] [mg/kg] | Ki [4] [nM] | Selectivity ratio KOP/MOP [4] | Ki [5] [nM] | EC50 [6] [nM] | Emax [6] [%] | ED50 [7] [mg/kg] | Ki [8] [nM] | Selectivity ratio DOP/MOP [8] | ED50 [9] [mg/kg] | EC50 [10] [nM] | Emax [10] [%] | ED50 (95% CL) TF [13] | ED50 (95% CL) PPQ [14] | ED50 (95% CL) HP [15] | Ki [17] [nM] | Ki [18] [nM] | Times greater potency than oxycodone and 14-OMC, calcium mobilization ([10]; CHOhMOP Gαqi5 cells) | other results |
| --- | --- | --- | --- | --- | --- | --- | --- | --- | --- | --- | --- | --- | --- | --- | --- | --- | --- | --- | --- |
| COC12CCC(=O)C3Oc4c(O)ccc5c4C31CCN(C)C2C5 (stereo not shown) [14-O-methyloxymorphone] | – | – | – | – | – | – | – | – | – | – | – | – | – | – | – | – | – | – | Times increased binding affinity at the MOP receptor vs oxymorphone [1]: 9 times; Times more potent in inducing an antinociceptive effect than oxymorphone [2]: up to 40 times |
| COc1ccc2c3c1O[C@H]1C(=O)CC[C@@]4(OC)[C@@H](C2)N(C)CC[C@]314 [14-OMC, 14-O-methyloxycodone, reference compound] | 0.22 | 454 ± 6 | 13 | 35.3 ± 2.1 | 325 ± 94 | 137 ± 55 | 1.02 | 116 ± 15 | 3 | 0.8 | 973 ± 204 | 72 ± 7 | – | – | – | – | – | – | – |
| C[C@@H](NC(=O)[C@@H](N)Cc1ccc(O)cc1)C(=O)NCC(=O)N(C)[C@@H](Cc1ccccc1)C(=O)NCCO [DAMGO, [D-Ala^2,Me-Phe^4,Gly-ol^5]enkephalin, reference compound] | – | – | – | – | – | – | – | – | – | – | – | – | – | – | – | – | – | – | Maximal DAMGO stimulation in [35S]GTPγS functional assay [6, 23]: 225 ± 32%; Maximal DAMGO stimulation in calcium mobilization assay [10, 23]: 217 ± 21% |
| COc1ccc2c3c1O[C@H]1C(=O)CC[C@@]4(O)[C@@H](C2)N(C)CC[C@]314 [Oxycodone, oxycodone, reference compound] | – | – | – | – | – | 92 ± 9 | – | – | – | – | – | 38 ± 3 | 0.94 (0.40-2.30) mg/kg, s.c. | 0.38 (0.19-0.75) mg/kg, s.c. | 1.37 (0.48-3.92) mg/kg, s.c. | – | – | – | EC50 [11]: 1400 nM; Efficacy, changes in intracellular calcium levels [12]: 100%; EC50 ([12]; read-out: Potency, changes in intracellular calcium levels): 1740 nM; EC50 [16]: 373 nM |
| COc1ccc2c(c1O)C13C=C(C#N)CCC1(O)C(C2)N(C)CC3 (stereo not shown) [compound 1] | – | – | – | – | 273 ± 24 | 98 ± 4 | – | – | – | – | 957 ± 233 | 57 ± 4 | 1.88 (1.25-2.83) mg/kg, s.c. | 0.18 (0.076-0.42) mg/kg, s.c. | 0.50 (0.12-2.02) mg/kg, s.c. | 498 ± 79 | 1650 | up to 10 times | – |
| COc1ccc2c(c1OC)C13C=C(C#N)CCC1(O)C(C2)N(C)CC3 (stereo not shown) [compound 2] | – | – | – | – | 42.5 ± 14.9 | 97 ± 15 | – | – | – | – | 116 ± 9 | 69 ± 7 | 0.12 (0.061-0.23) mg/kg, s.c. | 0.026 (0.012-0.055) mg/kg, s.c. | 0.15 (0.054-0.41) mg/kg, s.c. | 107 ± 5 | 364 ± 7 | up to 10 times | Selectivity ratio DOP/MOP [17]: 44; Ki [19]: 2.44 ± 0.13 nM; Selectivity ratio KOP/MOP [18]: 149 |
| COc1ccc2c(c1O)C13C=C(C#N)CCC1(OC)C(C2)N(C)CC3 (stereo not shown) [compound 3] | – | – | – | – | 26.2 ± 1.7 | 85 ± 3 | – | – | – | – | 140 ± 21 | 61 ± 6 | 0.21 (0.11-0.40) mg/kg, s.c. | 0.11 (0.072-0.16) mg/kg, s.c. | 0.25 (0.11-0.59) mg/kg, s.c. | 197 ± 29 | 378 ± 155 | up to 10 times | Selectivity ratio DOP/MOP [17]: 37; Ki [19]: 5.38 ± 0.42 nM; Selectivity ratio KOP/MOP [18]: 70 |
| COc1ccc2c(c1OC)C13C=C(C(N)=O)CCC1(OC)C(C2)N(C)CC3 (stereo not shown) [compound 4] | 0.18 | 105 ± 45 | 65 | 1.61 ± 0.05 | 25.6 ± 9.5 | 107 ± 26 | 1.3 | 28.8 ± 2.3 | 18 | 1.34 | 56.1 ± 11.3 | 59 ± 8 | – | – | – | – | – | – | Times less active than compound 1, hot-plate [7]: about 3 times |
| COc1ccc2c(c1OC)C13C=C(C#N)C=CC1(OC)C(C2)N(C)CC3 (stereo not shown) [compound 5] | 0.0023 | 200 ± 40 | 370 | 0.54 ± 0.04 | 1.64 ± 0.19 | 133 ± 7 | 0.08 | 30.3 ± 2.9 | 56 | 0.04 | 21.7 ± 5.5 | 70 ± 8 | – | – | – | – | – | – | Times more active than oxycodone (antinociceptive potency) ([3]; s.c.): up to 165 times; Ki [20]: 56 nM; MOP selectivity vs. DOP ([20]; recombinant receptors, C6rDOP vs C6rMOP): 80 times; Ki [21]: 229 nM; MOP selectivity vs. KOP ([21]; recombinant receptors, CHOhKOP vs C6rMOP): 327 times; Times more potent than DAMGO, calcium mobilization ([10]; CHOhMOP Gαqi5 cells): about 2 times; Ki [22]: 0.7 nM |
| COc1ccc2c3c1OC1C(C#N)=CCC4(OC)C(C2)N(C)CCC314 (stereo not shown) [compound 6] | 0.003 | 194 ± 68 | 26 | 7.39 ± 0.34 | 25.1 ± 3.6 | 121 ± 27 | 0.089 | 239 ± 40 | 32 | 0.12 | 173 ± 21 | 84 ± 10 | – | – | – | – | – | up to 10 times | Times more potent than 14-OMC, PPQ ([3]; s.c.): 72 times; Times more potent than analogue 3, PPQ ([3]; s.c.): ~37 times; Times more active than oxycodone (antinociceptive potency) ([3]; s.c.): up to 165 times; Increase in binding to the MOP receptor vs 6-keto counterpart 14-OMC ([5]; rat brain membranes): about 5 times; Times more potent than 14-OMC, hot-plate [7]: 11 times; Times more potent than analogue 3, hot-plate [7]: ca. 3 times; Times less potent than analogue 5, tail-flick [9]: 3 times; Times more potent than 14-OMC, tail-flick [9]: 7 times; Times more potent than analogue 3, tail-flick [9]: ~2 times |
